System: terminal buds of Swietenia macrophylla
Assay: Induction of multiple shoots from terminal buds on modified B5 medium
Assay type: cell-based
Settings: IBA 0 mg/l
Protocol: Terminal buds were excised from mature trees of Swietenia macrophylla and subjected to surface sterilization in 70% ethanol for 30 seconds and then in 2% sodium hypochlorite for 6 minutes, washed several times with sterilized water and dried on a sterilized filter paper.
To a modified B5 medium (which was a B5 medium amounts of all the components were each made a half were added 30 g/l of sucrose, and 0 to 0.02 mg/l of IBA and 0.02 to 1.0 mg/l of BAP as plant growth regulators, followed by pH adjustment to 5.7 and sterilization. The medium so prepared was used as a multiple shoots-inducing medium, and was used at a culturing temperature of 26±2° C. under illumination of fluorescent lamps for 16 hours per day (3,000 to 9,000 Lux). One to 3 months after the start of culturing, multiple shoots were induced.

SMILES: c1ccc(CNc2ncnc3[nH]cnc23)cc1 [BAP, benzylaminopurine]
- Number of formed multiple shoots/Number of total tested terminal buds (BAP 0.02 mg/l): 1/20
- Number of formed multiple shoots/Number of total tested terminal buds (BAP 0.2 mg/l): 5/20
- Number of formed multiple shoots/Number of total tested terminal buds (BAP 1.0 mg/l): 8/20
